Experimental data from patent US20210008175A1, “BACTERIOPHAGE LYSIN AND ANTIBIOTIC COMBINATIONS AGAINST GRAM POSITIVE BACTERIA” (priority 2012, published 2021).
Values after ≈ are worked out from the molar mass of the structure shown. Read-outs that look alike come from different tables or passages of the source. Marks after values point to notes of the source that are not given here.

Tests used:
Staphylococcus aureus = experiment: MIC, broth microdilution (CLSI M07-A9); format: cell-based; conditions: for MIC90: with reducing agent
[1] = test system: Staphylococcus aureus (MRSA and MSSA strains); experiment: Time kill assay, single agents at 1×MIC (CLSI); format: cell-based
MRSA S. aureus strains = experiment: Dual agent MIC assay (PlySs2 and daptomycin together, broth microdilution); format: cell-based; conditions: for MIC combo: PlySs2 and daptomycin combined; for MIC: Staphylococcus aureus, MRSA
S. aureus [2] = experiment: Cell envelope binding of BODIPY-fluorescein-labeled antibiotics; format: cell-based
Procedure: As a complement to the synergy studies, daptomycin and vancomycin cell envelope-binding was examined using BODIPY-fluorescein-labeled antibiotics in the presence and absence of sub-MIC levels of CF-301. […] Similarly, cell wall-labeling with vancomycin occurs within 5 minutes in the presence of CF-301 (⅛^th MIC) versus 30 minutes without CF-301 (FIG. 20B). For both antibiotics, the labeling was first observed at bacterial division planes.

[3] = test system: MRSA strain MW2 and MSSA strain ATCC 29213; experiment: MIC in the presence of surfactant (Survanta), broth microdilution; format: cell-based, Staphylococcus aureus
MRSA strain 269 (MW2) = experiment: Combination MIC study in the presence of 15% surfactant (Survanta); format: cell-based, Staphylococcus aureus; conditions: PlySs2 plus daptomycin
S. aureus [4] = experiment: Murine bacteremia model, survival; format: in vivo, BALB/c mice
[5] = test system: MRSA strain ATCC 700699 and MSSA strain ATCC 25923; experiment: microbe, parasite or virus in culture; format: cell-based, Staphylococcus aureus; conditions: Staphylococcus aureus
[6] = test system: MRSA Staphylococcus aureus strain (MW2); experiment: microbe, parasite or virus in culture; format: cell-based; conditions: for MIC: Staphylococcus aureus, MRSA
[7] = high challenge (10^9 CFU MRSA MW2), dosing at 2 hours, daptomycin 50 mg/kg once daily, PlySs2 5.25 mg/kg (FIG. 27B)

CCCCCCCCCC(=O)N[C@@H](Cc1c[nH]c2ccccc12)C(=O)N[C@H](CC(N)=O)C(=O)N[C@@H](CC(=O)O)C(=O)N[C@@H]1C(=O)NCC(=O)N[C@@H](CCCN)C(=O)N[C@@H](CC(=O)O)C(=O)N[C@H](C)C(=O)N[C@@H](CC(=O)O)C(=O)NCC(=O)N[C@H](CO)C(=O)N[C@@H]([C@H](C)CC(=O)O)C(=O)N[C@@H](CC(=O)c2ccccc2N)C(=O)O[C@@H]1C [Daptomycin]
MIC90 (Staphylococcus aureus; DRSA (n = 8)): 16
MIC90 (Staphylococcus aureus; LRSA (n = 5)): 1
MIC90 (Staphylococcus aureus; MRSA (n = 45)): 1
MIC90 (Staphylococcus aureus; MSSA (n-28)): 1
MIC90 (Staphylococcus aureus; Staphylococcus aureus, DRSA (n = 8), read-out: MIC90): 9.9 µM (≈ 16 µg/mL)
MIC90 (Staphylococcus aureus; Staphylococcus aureus, LRSA (n = 5), read-out: MIC90): 0.6 µM (≈ 0.972 µg/mL)
MIC90 (Staphylococcus aureus; Staphylococcus aureus, MRSA, MRSA (n = 45), read-out: MIC90): 0.6 µM (≈ 0.972 µg/mL)
MIC90 (Staphylococcus aureus; Staphylococcus aureus, MSSA, MSSA (n-28), read-out: MIC90): 0.6 µM (≈ 0.972 µg/mL)
MIC90 (Staphylococcus aureus; Staphylococcus aureus, VISA, VISA (n = 10), read-out: MIC90): 4.9 µM (≈ 7.94 µg/mL)
MIC90 (Staphylococcus aureus; Staphylococcus aureus, VRSA, VRSA (n = 14), read-out: MIC90): 0.6 µM (≈ 0.972 µg/mL)
MIC90 (Staphylococcus aureus; VISA (n = 10)): 8
MIC90 (Staphylococcus aureus; VRSA (n = 14)): 1
time to reach bactericidal levels (≥3-log10 reduction in CFUs) ([1]; 1×MIC, 20 MSSA and 42 MRSA strains): 6 hours
Fold reduction (MRSA S. aureus strains; MRSA strain 223): 128
MIC combo (MRSA S. aureus strains; MRSA strain 223): 0.0075 µg/mL
Fold reduction (MRSA S. aureus strains; MRSA strain 241): 256
MIC combo (MRSA S. aureus strains; MRSA strain 241): 0.0037 µg/mL
Fold reduction (MRSA S. aureus strains; MRSA strain 263): 128
MIC combo (MRSA S. aureus strains; MRSA strain 263): 0.0075 µg/mL
Fold reduction (MRSA S. aureus strains; MRSA strain 269 (MW2)): 64
MIC combo (MRSA S. aureus strains; MRSA strain 269 (MW2)): 0.015 µg/mL
Fold reduction (MRSA S. aureus strains; MRSA strain 270): 64
MIC combo (MRSA S. aureus strains; MRSA strain 270): 0.015 µg/mL
Fold reduction (MRSA S. aureus strains; MRSA strain 553): 128
MIC combo (MRSA S. aureus strains; MRSA strain 553): 0.0075 µg/mL
Fold reduction (MRSA S. aureus strains; MRSA strain 650): 64
MIC combo (MRSA S. aureus strains; MRSA strain 650): 0.015 µg/mL
Fold reduction (MRSA S. aureus strains; MRSA strain 827): 128
MIC combo (MRSA S. aureus strains; MRSA strain 827): 0.0075 µg/mL
Fold reduction (MRSA S. aureus strains; MRSA strain 828): 128
MIC combo (MRSA S. aureus strains; MRSA strain 828): 0.0075 µg/mL
Fold reduction (MRSA S. aureus strains; MRSA strain 829): 128
MIC combo (MRSA S. aureus strains; MRSA strain 829): 0.0075 µg/mL
Fold reduction (MRSA S. aureus strains; MRSA strain 830): 64
MIC combo (MRSA S. aureus strains; MRSA strain 830): 0.015 µg/mL
Fold reduction (MRSA S. aureus strains; MRSA strain 833): 128
MIC combo (MRSA S. aureus strains; MRSA strain 833): 0.0075 µg/mL
fold reduction in the effective MIC (MRSA S. aureus strains; PlySs2 and daptomycin together, a dozen MRSA strains): 16-256 fold
MIC (MRSA S. aureus strains; MRSA strain 223, single-agent, read-out: MIC alone): 1 µg/mL (≈ 0.617 µM)
MIC (MRSA S. aureus strains; MRSA strain 241, single-agent, read-out: MIC alone): 1 µg/mL (≈ 0.617 µM)
MIC (MRSA S. aureus strains; MRSA strain 263, single-agent, read-out: MIC alone): 1 µg/mL (≈ 0.617 µM)
MIC (MRSA S. aureus strains; MRSA strain 269 (MW2), single-agent, read-out: MIC alone): 1 µg/mL (≈ 0.617 µM)
MIC (MRSA S. aureus strains; MRSA strain 270, single-agent, read-out: MIC alone): 1 µg/mL (≈ 0.617 µM)
MIC (MRSA S. aureus strains; MRSA strain 553, single-agent, read-out: MIC alone): 1 µg/mL (≈ 0.617 µM)
MIC (MRSA S. aureus strains; MRSA strain 650, single-agent, read-out: MIC alone): 1 µg/mL (≈ 0.617 µM)
MIC (MRSA S. aureus strains; MRSA strain 827, single-agent, read-out: MIC alone): 1 µg/mL (≈ 0.617 µM)
MIC (MRSA S. aureus strains; MRSA strain 828, single-agent, read-out: MIC alone): 1 µg/mL (≈ 0.617 µM)
MIC (MRSA S. aureus strains; MRSA strain 829, single-agent, read-out: MIC alone): 1 µg/mL (≈ 0.617 µM)
MIC (MRSA S. aureus strains; MRSA strain 830, single-agent, read-out: MIC alone): 1 µg/mL (≈ 0.617 µM)
MIC (MRSA S. aureus strains; MRSA strain 833, single-agent, read-out: MIC alone): 1 µg/mL (≈ 0.617 µM)
MIC (MRSA S. aureus strains; daptomycin as single agent, read-out: MIC): 1 µg/mL (≈ 0.617 µM)
MIC (MRSA S. aureus strains; daptomycin with 0.25× MIC PlySs2, read-out: MIC): 0.0075 µg/mL (≈ 0.00463 µM)
decrease of MIC (MRSA S. aureus strains; daptomycin with 0.25× MIC PlySs2): 128 fold
degree of potency enhancement (MRSA S. aureus strains; daptomycin with PlySs2, across 12 MRSA strains): 64 to 256 fold
time to antibiotic penetration (BODIPY-labeled daptomycin binding) (S. aureus [2]; in the presence of CF-301 at 1/32nd MIC): 15 min
time to antibiotic penetration (BODIPY-labeled daptomycin binding) (S. aureus [2]; without CF-301): 180 min
inhibition of MIC by surfactant ([3]; Survanta, up to 15%): up to 256 fold
inhibition of MIC by surfactant ([3]; surfactant concentration of 1.25%): more than 20 fold
effective concentration in combination as fraction of MIC (MRSA strain 269 (MW2)): 1/1024
most dilute concentration in combination that still inhibits growth (MRSA strain 269 (MW2)): 0.25 µg/mL
24 hour survival rate (S. aureus [4]; [7]): 47%
72 hour survival rate (S. aureus [4]; [7]): 31%
survival at 72 hours (S. aureus [4]; low challenge model (up to 7×10^6 CFU MRSA MW2), single dose at 4 hours, PlySs2 1.25 mg/kg, daptomycin 2 mg/kg): 23%
MIC ([5]; 504 h, read-out: MIC in daptomycin resistant clones): 18 µg/mL (≈ 11.1 µM)
MIC ([5]; read-out: MIC before daptomycin resistance selection): 1 µg/mL (≈ 0.617 µM)
MIC ([6]; read-out: daptomycin MIC, ending values, passaged with PlySs2 (4 ug/ml) plus daptomycin, 30-day study): 4 µg/mL
MIC ([6]; read-out: daptomycin MIC, ending values, three daptomycin-only cultures, 30-day study): 128 µg/mL (≈ 79 µM)
antibiotic MIC, starting value ([6]; before serial passage): 1 µg/mL
increase of daptomycin MIC ([6]; daptomycin-only cultures, 30-day study): 64 to 128 fold
increase of daptomycin MIC ([6]; passaged with PlySs2 (4 ug/ml) plus daptomycin): 4 fold
daptomycin MIC, ending values ([6]; three daptomycin-only cultures, 30-day study): 64 µg/mL

CC(=O)NC[C@H]1CN(c2ccc(N3CCOCC3)c(F)c2)C(=O)O1 [Linezolid]
MIC50/90 (Staphylococcus aureus; DRSA (n = 8)): 2
MIC50/90 [uM] (Staphylococcus aureus; DRSA (n = 8)): 5.7 µM (≈ 1.92 µg/mL)
MIC50/90 (Staphylococcus aureus; LRSA (n = 5)): >64
MIC50/90 [uM] (Staphylococcus aureus; LRSA (n = 5)): >183 µM
MIC50/90 (Staphylococcus aureus; MRSA (n = 45)): 2
MIC50/90 [uM] (Staphylococcus aureus; MRSA (n = 45)): 5.7 µM (≈ 1.92 µg/mL)
MIC50/90 (Staphylococcus aureus; MSSA (n-28)): 2
MIC50/90 [uM] (Staphylococcus aureus; MSSA (n-28)): 5.7 µM (≈ 1.92 µg/mL)
MIC50/90 (Staphylococcus aureus; VISA (n = 10)): 2
MIC50/90 [uM] (Staphylococcus aureus; VISA (n = 10)): 5.7 µM (≈ 1.92 µg/mL)
MIC50/90 (Staphylococcus aureus; VRSA (n = 14)): 2
MIC50/90 [uM] (Staphylococcus aureus; VRSA (n = 14)): 5.7 µM (≈ 1.92 µg/mL)

Cc1onc(-c2ccccc2)c1C(=O)N[C@@H]1C(=O)N2[C@@H]1SC(C)(C)[C@@H]2C(=O)O [Oxacillin, oxacillin]
MIC50/90 (Staphylococcus aureus; MRSA (n = 45)): >4*
MIC50/90 [uM] (Staphylococcus aureus; MRSA (n = 45)): >10.0 µM
kill within 6 hours ([1]; 1×MIC): 2 log10
relative effectiveness among antibiotic agents ([1]; MSSA strains): least effective
